Source: patent US20100022600A1, “METHODS AND COMPOSITIONS FOR TREATING CENTRAL NERVOUS SYSTEM TUMORS” (priority 2006, published 2010)

What was measured:
Rat C6 glioma cells = test: MTT viability assay, rat C6 glioma cells; type: cell-based; details: 10 and 30 μM; concentration- and time-dependent; significant at 5 d and 7 d (30 μM) and at 7 d (10 μM)
Procedure: (§1) Rat C6 glioma cells were grown in DMEM and human glioma cells (U87, A172) in RPMI, supplemented with 10% (v/v) fetal calf serum, 100 U/mL penicillin and 100 U/mL streptomycin in a 5% CO2 atmosphere. Primary astrocyte cultures were prepared as described previously (J Neurosci 1998; 18: 4451-60) and grown in DMEM, supplemented with 2.5% (v/v) fetal calf serum, 100 U/mL penicillin and 100 U/mL streptomycin in a 5% CO2 atmosphere. […] Experiments were performed in triplicate.

human glioma cells U87 = test: MTT viability assay, human U87 glioma cells; type: cell-based; details: 30 μM pio; 3, 5 and 7 d
Procedure: as §1

primary astrocytes = test: MTT viability assay, primary astrocytes; type: cell-based; details: 1, 10, 30 μM; 1, 3, 5, 7 d
Procedure: as §1

C6 glioma cell cultures = test: Ki-67 immunoreactivity and proliferation-index in vitro; type: cell-based, rat; details: 30 μM pio, 2 d and 5 d
Procedure: C6 glioma cell cultures were treated with pio or vehicle for 2 d and 5 d and fixed in 4% paraformaldehyde, rinsed in TBS and incubated with rabbit anti-Ki-67 (1:200 dilution) at 4° C. overnight and processed as described above. Counterstaining was carried out with propidium iodide (P1; 1:40; Sigma, St. Louis, Mo., USA) or DAPI-staining (1:500 in PBS). For determination of the proliferation-index, Ki-67 positive cells in pio and vehicle treated cells and animals were counted, the percentage of Ki-67 positive cells in 1×10^3 tumor cells (P1 staining used in the in vitro experiments—not shown; DAPI stain used in the in vivo experiments) calculated and statistically compared. The percentage of cleaved caspase-3 positive cells was assessed by counting the immunopositive cells in 1×10^3 tumor (DAPI stain) cells and statistically compared.

[1] = Daily body weight in C6 rat glioma model; type: in vivo; details: daily weighing; vehicle group lost weight significantly at 17 d
Procedure: Before implantation, 85-90% confluent C6 cells were trypsinized, rinsed with DMEM+10% fetal calf serum, and centrifuged at 1000 rpm for 4 min. The cell pellet was resuspended in DMEM and placed on ice. Concentration of viable cells was adjusted to 1×10^5 cells/1 μl of DMEM. Each rat was anesthetized and placed in a stereotactic frame (David Kopf Instruments, Tujunga, Calif., USA), a hole was drilled at AP 0.0, R -3.0 relative to bregma according to the stereotaxic atlas of […], 1963). Tumor cells were injected at a rate of 0.5 μl/s, using a 2 μl Hamilton (#2701) syringe (Reno, Nev., USA) with a 26 s-gauge needle mounted on a stereotactic holder at a depth of 5 mm. […] For intracerebral administration of pio/vehicle (DMSO), the tip of an Alzet-brain-infusion-kit (Cupertino, Calif., USA) was placed in a depth of 5 mm, connected to a 2ML4 Alzet osmotic pump (Cupertino, Calif., USA). Drug administration began 4 h after surgery. […] The pumps were filled with 20 μM pio solved in PBS or vehicle (DMSO, 0.1% final concentration) solved in PBS. Animals were randomly distributed in two groups, treated with pio filled pumps (n=26) or vehicle filled pumps (n=26). Thereafter skull was cleaned and the incision sutured. […] Control animals received Purina chow without additions. Rats were allowed free access to the chow. Tumors were allowed to grow and animals were weighed daily. […]

C6 glioma tumor cells = test: TUNEL assay for apoptosis in tumors, C6 rat glioma model; type: in vivo; details: 9 days of pio treatment
Procedure: Frozen brain tissue sections were examined for apoptosis using the terminal deoxynucleotidyl transferase-mediated dUTP transferase nick-end labeling (TUNEL assay). Apoptosis was evaluated using the Promega DeadEnd Fluorometric Tunel System (Promega, Madison, Wis., USA) according to the manufacturer's instructions. The percentage of TUNEL positive cells was assessed by counting the immunopositve cells in 1×10^3 tumor (DAPI stain) cells and statistically compared.

Ki-67 = Ki-67 immunoreactivity and proliferation-index in vivo; design: species or system rat; details: 9, 14 and 21 days of pio treatment
Procedure: Frozen brain sections were first blocked with 5% normal goat serum or normal horse serum in PBS and subsequently incubated with rabbit anti-Ki-67 antibody (1:200 dilution), mouse anti-CS-56 (1:100 dilution), goat anti-MMP-9 (1:100 dilution) or rabbit anti-cleaved caspase-3 antibody (1:200 dilution) at 4° C. overnight. Sections were washed extensively with PBS before incubation with secondary antibodies. Incubation was carried at room temperature for 1 h. After washing with PBS three times, stained slides were mounted with PBS/glycerol (1:1) and viewed under a fluorescent microscope (Leica, Germany). For determination of the proliferation-index, Ki-67 positive cells in pio and vehicle treated cells and animals were counted, the percentage of Ki-67 positive cells in 1×10^3 tumor cells (P1 staining used in the in vitro experiments—not shown; DAPI stain used in the in vivo experiments) calculated and statistically compared. The percentage of cleaved caspase-3 positive cells was assessed by counting the immunopositive cells in 1×10^3 tumor (DAPI stain) cells and statistically compared.

CCc1ccc(CCOc2ccc(CC3SC(=O)NC3=O)cc2)nc1 (stereo not shown) [pioglitazone, 5-[4-[2-(5-ethylpyridin-2-yl)ethoxyl]benzyl]thiazolidine-2,4-dione]
cellular viability, effect in words (Rat C6 glioma cells): significantly reduced the cellular viability | cellular viability, effect in words (human glioma cells U87): significantly reduced cellular viability | viability of primary astrocytes (primary astrocytes): not affected | number of Ki-67 immunopositive cells compared to vehicle (C6 glioma cell cultures): reduced the number of Ki-67 immunopositive cells | weight loss [1]: did not show any weight loss | TUNEL staining (C6 glioma tumor cells): Increased TUNEL staining | Ki-67 expression in vivo (Ki-67): significant reduction of Ki-67 expression
